{
  "source": "patent US8618074B2",
  "about": "“GPCR enhanced neuroprotection to treat brain injury” (Board of Regents of the University of Texas System, priority 2007, dated 2013)",
  "key": {"[1]": {"tested_on": "astrocytes", "assay": "Intracellular ATP determination (luciferin-luciferase)", "format": "cell-based, mouse", "experimental": "Intracellular ATP was measured using a luciferin-luciferase kit (Invitrogen, #22066). Plated astrocytes were trypsinized and washed 3× with PBS buffer (GIBCO #14190). An aliquot of cells was set aside to measure the cell density with a hemocytometer. The cells were then suspended in a lysate buffer (4 mM EDTA and 100 mM Tris, pH 7.75) and immediately heated to 100° C. for 5 minutes to minimize enzymatic changes in ATP levels. The supernatant was collected after a 10,000 g centrifugation for 1 minute and used with the luciferin/luciferase kit according to the manufacturer's instructions. Luminescence was measured with a Synergy™ HT Multi-Detection Microplate Reader (BioTek). ATP levels were normalized by cell density.\nOur next approach to investigate the role of mitochondrial metabolism was to directly measure ATP levels in cultures astrocytes using a luciferin-luciferase assay (Invitrogen). Astrocytes were cultured as described above, trypsinized and washed with buffer. The cells were then suspended in a lysate buffer and immediately heated to 100° C. (5 min) to minimize enzymatic changes in ATP levels. After centrifugation, the ATP dependent luminescence of supernatant was measured with a microplate reader (Biotek). FIG. 5C depicts histograms of the direct measurement of intracellular ATP levels relative to untreated cells (control), P2Y-R stimulated (MeADP), then the same measurements in the presence of oligomycin (oligo) or ruthenium 360 (Ru360). We estimated that the resting intracellular ATP concentration in cultured astrocytes was 0.31±0.14 μM ATP/10^4 cells (n=3). […] Finally, we tested whether ruthenium 360 (Ru360; Calbiochem), a polycation that inhibits the electrogenic mitochondrial Ca^2+ uniporter, affected mitochondrial ATP production."}, "[2]": {"tested_on": "RB-induced cerebral infarcts in the mouse cortex", "assay": "RB-induced photothrombotic cerebral infarct size, small animal imaging with PE-Cy5.5 anti-CD40", "format": "in vivo", "experimental": "These set of experiments utilizes small animal imaging studies to non-invasively study the impact of G-protein stimulated IP3-gated Ca^2+ release on astrocyte neuroprotection during the aging process. In brief, focal cerebral infarcts are induced using photothrombosis as described in EXAMPLE 8. However, irradiation of the brain with green light is carried out through the cranium with a 10× objective. […] We observe the size of the lesion in subsequent days by taking advantage of an inflammatory response at the lesion, which we label with a fluorescently conjugated antibody to CD40 (PE-Cy5.5-anti-mouse-CD40). […] It has also been reported that the PE-Cy5.5 CD40 antibody localized to activated endothelium at the brain lesion and to blood derived cells of the mononuclear lineage. We have successfully used this approach to image RB-induced brain inflammation in mice with high sensitivity and specificity. […] To carry out these experiments, 3 mice were imaged. On the day of the initial photothrombosis, one mouse was injected with Rose Bengal, one with Rose Bengal and 2-MeSADP and the third mouse was injected only with saline. […] For one set of mice, we re-imaged the mice at day 17 post occlusion and found CD40 labeling undetectable in the 2-MeSADP injected mouse. […] Finally, in one mouse, we also injected a fluorescent dye (IR-820) on day 3 that is a strong indicator of blood brain barrier dysfunction. Accumulation of this dye at the site of a lesion is consistent with a permeant (i.e., compromised) blood brain barrier. As noted above small animal imaging has been successfully employed to progressively follow and measure the size of Rose Bengal (RB)-induced brain infarcts in live mice for over 2 weeks."}, "[3]": {"tested_on": "astrocytes", "assay": "O2 consumption assay (Clark electrode respirometry)", "format": "cell-based, mouse", "experimental": "O2 consumption was monitored with a Clark electrode (Mitocell S200 micro respirometry system; Strathkelvin Instruments). Astrocytes (500 μl at 10^5 cells/ml) were loaded into a 500 μl MT200A Respirometer Chamber, suspended by a fixed-speed solid-state magnetic stirrer inside the chamber and maintained at 37° C. by a circulating water bath. O2 was monitored for 4 minutes before injecting 5 μl of ATP (200 μM) into the chamber. O2 consumption was then monitored for another 4 minutes. Changes in O2 levels were calculated by respirometry software. For control recordings, 5 μl of buffer was injected into chamber. Oligomycin astrocytes were treated with oligomycin (0.01 μM) for 30 minutes before trypsinization and loading into chamber.\nTo further investigate the importance of mitochondrial metabolism on the protective effect of P2Y-R activation, we first measured the rate of O2 consumption for astrocytes with and without P2Y-R activation. Primary cultures of astrocytes were grown to ˜70% confluency, gently removed by trypsin EDTA and resuspended in PBS buffer. Astrocytes (10^5 cells/ml) were then loaded into a 500 μl Respirometer Chamber MT200A) and maintained at 37° C. by a circulating water bath. FIG. 5A depicts plots of O2 levels in suspended astrocytes as labeled. FIG. 5B depicts a histogram showing the average change in O2 consumption with 2 μM ATP compared to untreated cells (control). Bars on the right show O2 consumption of Astrocytes are preloaded 0.01 uM Oligomycin (30 minutes)."}, "[4]": {"tested_on": "astrocytes", "assay": "Mitochondrial membrane potential ΔΨ estimated as log(Fmito/Fcyto) with TMRE", "format": "cell-based, mouse", "conditions": "treating astrocytes for 10 minutes", "experimental": "Mitochondrial membrane potentials (ΔΨs) was measured as previously described using the potential sensitive dye tetra-methyl rhodamine ethyl ester (TMRE, Molecular Probes, #T-669) (Lin and Lechleiter, 2002). Images were acquired with a 60× oil 1.4 NA objective on a Nikon PCM2000 confocal microscope custom adapted for two-photon imaging. A Ti-sapphire Coherent Mira 900 Laser pumped with a 5W Verdi laser (Coherent Inc., Santa Clara, Calif.) was used to excite TMRE at 800 nm A neutral-density filter wheel was used to attenuate the laser intensity so that no detectable photobleaching of TMRE was observed.\nWe confirmed this by directly measuring the effect of ATP, ATP plus XeC and IP3-BM treatments on ΔΨ. Cultured cells were labeled with TMRE (200 nM) and imaged with a two-photon microscope as described above. ΔΨ was estimated as the log (Fmito/Fcyto) where Fmito is the peak fluorescent intensity observed in single mitochondria (Farkas et al., 1989; Lin et al., 2005). The mean values of individual mitochondria from a single cell were used for the mitochondrial potential estimate. Fcyto represents the lowest value of TMRE fluorescence observed within the boundaries of the same cell. […] FIG. 5E depicts a histogram plot showing average mitochondrial membrane potentials before and after treatment. The mean resting ΔΨs for untreated (Buffer), ATP-treated, ATP plus XeC-treated and IP3-BM-treated were 1.84+0.01 (n=78 mitochondria, pooled from 2 experiments), 1.84+0.01 (n=85 mitochondria), 1.85+0.01 (n=80 mitochondria) and 1.86+0.01 (n=48 mitochondria), respectively. Astrocyte cultures were then exposed to their respective treatments and the same fields of mitochondria were imaged 10 minutes later."}},
  "data": [
    {"smiles": "CSc1nc(N)c2ncn([C@@H]3O[C@H](COP(=O)(O)OP(=O)(O)O)[C@@H](O)[C@H]3O)c2n1", "note": "[2-MeSADP]", "values": [
      {"measurement": "intracellular ATP levels", "setting": "[1]; 2-MeSADP 2 μM for 10 minutes", "result": "0.39±0.16", "unit": "μM ATP/10^4 cells"},
      {"measurement": "size of the cerebral infarct", "setting": "[2]; 2-MeSADP introduced 24 hours later", "result": "reduced"},
      {"measurement": "size of the cerebral infarct", "setting": "[2]; 2-MeSADP present during the initial photothrombosis (day 0)", "result": "reduced"},
      {"measurement": "size of the lesion", "setting": "[2]; day 3 after cerebral infarction, co-injected with Rose Bengal, versus Rose Bengal or saline alone", "result": "significantly smaller"},
      {"measurement": "CD40 labeling", "setting": "[2]; day 17 post occlusion", "result": "undetectable"}
    ]},
    {"smiles": "Nc1ncnc2c1ncn2[C@@H]1O[C@H](COP(=O)(O)OP(=O)(O)OP(=O)(O)O)[C@@H](O)[C@H]1O", "note": "[ATP]", "values": [
      {"measurement": "rate of O2 consumption", "setting": "[3]; bolus of ATP, 2 μM final concentration", "result": "3.67 ± 0.3", "unit": "nmol/min"},
      {"measurement": "ΔΨ (log Fmito/Fcyto) after treatment", "setting": "[4]", "result": "1.98±0.01"}
    ]},
    {"smiles": "CC[C@H]1/C=C/C=C/C[C@@H](C)[C@H](O)[C@@](C)(O)C(=O)[C@@H](C)[C@H](O)[C@@H](C)C(=O)[C@@H](C)[C@H](O)[C@@H](C)/C=C/C(=O)O[C@@H]2[C@H](C)[C@H](CC1)O[C@]1(CC[C@H](C)[C@H](C[C@@H](C)O)O1)[C@H]2C", "note": "[oligomycin]", "values": [
      {"measurement": "rate of O2 consumption", "setting": "[3]; oligomycin 0.01 μM 30 minutes + extracellular ATP", "result": "1.19 ± 0.27", "unit": "nmol/min"},
      {"measurement": "rate of O2 consumption", "setting": "[3]; oligomycin 0.01 μM, 30 minutes", "result": "0.97 ± 0.21", "unit": "nmol/min"},
      {"measurement": "effect on P2Y1-R (2-MeSADP) mediated increases in ATP", "setting": "[1]; oligomycin 0.01 μM 30 min pretreatment + 2-MeSADP", "result": "completely inhibited"},
      {"measurement": "resting levels of ATP, % of control", "setting": "[1]; oligomycin 0.01 μM, 30 min", "result": "82.6%±3.2 % of control"}
    ]}
  ]
}
